Reference: the NIST ThermoML archive (doi:10.1016/j.jct.2010.12.007)

How the values were obtained:
[1] = Molar enthalpy of transition or fusion; details: Crystal; DSC
[2] = Crystal; for vapor or sublimation pressure: Transpiration method; for Normal melting temperature: DTA

N#Cc1ccc(NS(=O)(=O)c2ccc(N)cc2)cc1 [4-amino-N-(4-cyanophenyl)benzenesulfonamide]
Details | Molar enthalpy of transition or fusion [kcal/mol] | Normal melting temperature [°C]
[1] | 7.39 | –
[2] | – | 178.4

[2]
Details | vapor or sublimation pressure [kPa]
420.15 K | 6.74e-06
420.95 K | 7.23e-06
421.35 K | 7.91e-06
424.75 K | 1.13e-05
426.55 K | 1.36e-05
428.35 K | 1.66e-05
429.65 K | 1.94e-05
431.35 K | 2.11e-05
431.75 K | 2.28e-05
432.35 K | 2.33e-05
433.05 K | 2.63e-05
434.75 K | 3.17e-05
435.75 K | 3.58e-05
437.15 K | 4.24e-05
437.55 K | 4.37e-05

Nc1ccc(S(=O)(=O)Nc2ccc([N+](=O)[O-])cc2)cc1 [4-amino-N-(4-nitrophenyl)benzenesulfonamide]
Details | Molar enthalpy of transition or fusion [kcal/mol] | Normal melting temperature [°C]
[1] | 6.67 | –
[2] | – | 165.8

[2]
Details | vapor or sublimation pressure [kPa]
405.55 K | 1.5e-06
409.45 K | 2.18e-06
412.85 K | 2.3e-06
415.15 K | 3.41e-06
417.25 K | 4.01e-06
418.75 K | 4.34e-06
420.05 K | 5.46e-06
421.55 K | 5.63e-06
423.25 K | 6.16e-06
424.65 K | 7.3e-06
426.25 K | 8.92e-06
428.75 K | 1.05e-05
431.35 K | 1.28e-05
432.05 K | 1.41e-05
435.15 K | 1.81e-05
438.25 K | 2.28e-05

O=[N+]([O-])c1ccc(NS(=O)(=O)c2ccccc2)cc1 [N-(4-nitrophenyl)benzenesulfonamide]
Details | Molar enthalpy of transition or fusion [kcal/mol] | Normal melting temperature [°C]
[1] | 6.86 | –
[2] | – | 138.2

[2]
Details | vapor or sublimation pressure [kPa]
380.15 K | 9.47e-06
384.15 K | 1.55e-05
385.15 K | 1.72e-05
387.15 K | 2.09e-05
390.15 K | 2.84e-05
391.15 K | 3.17e-05
392.15 K | 3.47e-05
393.15 K | 3.88e-05
394.15 K | 4.04e-05
395.15 K | 4.64e-05
396.65 K | 5.13e-05
401.15 K | 8.37e-05
401.65 K | 8.63e-05
